# In patent US20040038855A1 (priority 1999, published 2004):
# Counter-ions that a name gives are not always drawn. Like-named read-outs stand apart in the source and are kept apart here.
# How the values were obtained:
# human MCH1 receptor [1] = target: T1, human MCH1 receptor (Homo sapiens, UniProt Q99705); experiment: Competition binding, membrane preparations of A293 cells expressing the human MCH1 receptor, [3H] Compound 10 as radioligand; parameters: expressed in transfected cells; details: Table 3b; A293 cell membranes, [3H] Compound 10; read-out: hMCH1* Ki
# Method: TRITIATED METHYL (4S)-3-{[(3-{4-[3-(ACETYLAMINO)PHENYL]-1-[…]}PROPYL)AMINO]CARBONYL}-4-(3,4-DIFLUOROPHENYL)-6-(METHOXYMETHYL)-2-OXO-1,2,3,4-TETRAHYDRO-5-PYRIMIDINECARBOXYLATE ([^3H] COMPOUND 10): This radiochemical synthesis was carried out by Amersham Pharmacia Biotech, Cardiff, Wales. A methanolic solution of methyl (4S)-3-({[3-(4-[3-(acetylamino)phenyl]-3,6-dihydro-1(2H)pyridinyl)propyl]amino}carbonyl)-4-(3,4-difluorophenyl)-6-(methoxymethyl)-2-oxo-1,2,3,4-tetrahydro-5-pyrimidinecarboxylate was exposed to tritium gas at 1 atmosphere pressure in the presence of 5% palladium on carbon with stirring overnight to give the tritiated methyl (4S)-3-{[(3-{4-[3-(acetylamino)phenyl]-1-piperidinyl}propyl)amino]carbonyl}-4-(3,4-difluorophenyl)-6-(methoxymethyl)-2-oxo-1,2,3,4-tetrahydro-5-pyrimidinecarboxylate ((+)-isomer) After purification by reverse phase HPLC (Hypersil ODS, 4.6×100 mm, methanol:H2O:Et3N 10:90:1 to 100:0:1 in 15 min at 1.0 mL/min, with radiochemical and UV detection), this product was used as a radioligand in the MCH1 binding assays. The same procedure was carried out with H2 gas in place of ^3H2 to afford the non-radioactive version of Compound 10.
# human GALR3 receptor = target: T2, human GALR3 receptor (Homo sapiens, UniProt O60755); experiment: Binding affinity at the human GALR3 receptor; details: read-out: hGALR3 Ki
# T2 construct: expressed in transfected cells
# T2 sequence (O60755 1-368): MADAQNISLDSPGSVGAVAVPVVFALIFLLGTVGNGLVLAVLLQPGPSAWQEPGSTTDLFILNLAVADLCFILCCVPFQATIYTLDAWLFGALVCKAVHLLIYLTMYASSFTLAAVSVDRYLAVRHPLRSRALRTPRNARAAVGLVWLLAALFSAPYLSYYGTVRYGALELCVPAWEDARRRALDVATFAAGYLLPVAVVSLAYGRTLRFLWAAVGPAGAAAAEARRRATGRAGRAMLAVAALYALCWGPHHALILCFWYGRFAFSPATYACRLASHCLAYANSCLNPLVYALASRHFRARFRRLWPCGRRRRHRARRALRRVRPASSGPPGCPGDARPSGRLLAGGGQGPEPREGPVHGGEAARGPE
# From the text: (§1) The design of such compounds can be optimized by determining their binding affinity at the recombinant MCH1, NPY1, NPY2, Gal1, Gal2, Gal3, and 5HT2C receptors. The methods to obtain the cDNA of the receptor, express said receptors in heterologous systems, and carry out assays to determine binding affinity are described in the following publications: human NPY1 (Larhammar et al., 1992), human NPY5 (U.S. Pat. No. 5,602,024, the disclosure of which is hereby incorporated by reference in its entirety into this application), human Gall (Habert-Ortoli et al., 1994), human Gal2 (Smith et al., 1997), human Gal3 (Smith et al., 1998), and rat 5HT2C (Julius et al., 1988). Additionally, the compounds would optimally not bind at the following receptors due to possible side effects: human H1 histamine and human H2 histamine receptors; human alpha-1A adrenergic, human alpha-1D adrenergic, human alpha-2A adrenergic, human alpha-2B adrenergic, and human alpha-2C adrenergic receptors; human dopamine D1, D2, D3, D4, and D5 receptors; the β-adrenoceptor; and the human 5HT1A, human 5HT1B, human 5HT1D, human 5HT1E, human 5HT1F, human 5HT2A, rat 5HT2C, human 5HT4, human 5HT6, and human 5HT7 receptors.
# human MCH1 receptor [2] = target: T1, human MCH1 receptor; experiment: Intracellular calcium response to MCH in COS-7 cells transfected with MCH1 (fluo-3, FLIPR): antagonist potency; format: cell-based; parameters: expressed in transfected cells; host or cells: COS-7; details: read-out: Kb (nM) hMCH1
# From the text: MCH1 antagonist compounds were identified by their ability to inhibit the MCH-elicited response. […]. From the IC50 values, the antagonist potency (Kb)was derived using the Cheng-Prussof correction (Lazareno and Birdsall, 1993). […]
# human GALR2 receptor = target: T3, human GALR2 receptor (Homo sapiens, UniProt O43603); experiment: Binding affinity at the human GALR2 receptor; details: Table 3a; read-out: hGALR2 Ki
# T3 construct: expressed in transfected cells
# T3 sequence (O43603 1-387): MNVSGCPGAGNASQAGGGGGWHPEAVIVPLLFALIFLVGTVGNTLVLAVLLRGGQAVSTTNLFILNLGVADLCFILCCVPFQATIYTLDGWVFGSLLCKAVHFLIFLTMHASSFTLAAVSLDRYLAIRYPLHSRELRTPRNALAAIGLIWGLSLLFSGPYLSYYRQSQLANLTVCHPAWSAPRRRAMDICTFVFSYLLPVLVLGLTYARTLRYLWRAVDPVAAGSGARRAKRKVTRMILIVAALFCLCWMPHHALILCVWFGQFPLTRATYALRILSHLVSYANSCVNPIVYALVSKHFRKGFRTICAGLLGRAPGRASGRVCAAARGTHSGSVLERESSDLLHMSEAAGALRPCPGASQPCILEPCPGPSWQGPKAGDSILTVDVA
# From the text: as §1
# human GALR1 receptor = target: T4, human GALR1 receptor (Homo sapiens, UniProt P47211); experiment: Binding affinity at the human GALR1 receptor; details: read-out: hGALR1 Ki
# T4 construct: expressed in transfected cells
# T4 sequence (P47211 1-349): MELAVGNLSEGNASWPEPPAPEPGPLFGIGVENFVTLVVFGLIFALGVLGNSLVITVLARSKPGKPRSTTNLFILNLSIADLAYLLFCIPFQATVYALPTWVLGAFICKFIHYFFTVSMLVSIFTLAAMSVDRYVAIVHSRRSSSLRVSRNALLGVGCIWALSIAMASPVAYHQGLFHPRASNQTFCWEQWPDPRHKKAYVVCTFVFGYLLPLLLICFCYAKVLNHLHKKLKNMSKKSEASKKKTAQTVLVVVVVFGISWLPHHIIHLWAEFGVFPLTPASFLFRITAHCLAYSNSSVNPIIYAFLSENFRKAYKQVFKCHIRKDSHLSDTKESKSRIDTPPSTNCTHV
# From the text: as §1
# rat 5HT2C receptor = target: T5, rat 5HT2C receptor (Rattus norvegicus, UniProt P08909); experiment: Binding affinity at the rat 5HT2C receptor; details: Table 3a; read-out: r5HT2C Ki
# T5 construct: expressed in transfected cells
# T5 sequence (P08909 33-460): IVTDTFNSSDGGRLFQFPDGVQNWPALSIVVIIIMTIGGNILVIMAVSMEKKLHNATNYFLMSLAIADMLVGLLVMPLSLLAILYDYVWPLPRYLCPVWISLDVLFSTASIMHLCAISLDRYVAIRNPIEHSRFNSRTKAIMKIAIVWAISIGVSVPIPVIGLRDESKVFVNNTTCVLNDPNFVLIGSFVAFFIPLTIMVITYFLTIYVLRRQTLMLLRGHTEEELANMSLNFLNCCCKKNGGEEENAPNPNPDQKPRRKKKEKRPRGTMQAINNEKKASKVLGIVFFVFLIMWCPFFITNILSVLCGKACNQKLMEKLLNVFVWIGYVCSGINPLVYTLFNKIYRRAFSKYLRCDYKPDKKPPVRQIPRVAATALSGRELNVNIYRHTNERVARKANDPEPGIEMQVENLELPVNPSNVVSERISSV
# From the text: as §1
# Other 5HT Receptors: Other serotonin receptor binding assays were performed according to published methods: rat 5HT2C receptor (Julius et al., 1988); and 5HT6 (Monsma, et al., 1993). The binding assays using the 5HT4 receptor were performed according to the procedures described in U.S. Pat. No. 5,766,879, the disclosure of which is hereby incorporated by reference in its entirety into this application.
# [3] = system: micturition reflex, conscious male Sprague Dawley rats; experiment: Continuous Slow Transvesicular Infusion (CSTI) rat model; format: in vivo; parameters: key to Effect of MCH1 antagonist in the CSTI model: B = Produced an increase in bladder capacity in rats relative to baseline capacity; details: bladder capacity, intragastric
# Method: The effects of compounds on the micturition reflex were assessed in the “distension-induced rhythmic contraction” (DIRC), as described in previous publications (e.g. Maggi et al, 1987; Morikawa et al, 1992), and Continuous Slow Transvesicular Infusion (CSTI) models in rats. Male Sprague Dawley rats weighing approximately 300 g were used for the study. Rats were anaesthetized with pentobarbitone sodium (50 mg/kg, i.p). Through a median abdominal incision, bladder was exposed and a polyethylene cannula (PE 50) was introduced into the bladder through a small cut on the dome of the bladder and the cannula was secured with a purse string suture. The other end of the cannula was exteriorized subcutaneously at the dorsal neck area. Similarly, another cannula (PE 50) was introduced into the stomach through a paramedian abdominal incision with the free end exteriorized subcutaneously to the neck region. The surgical wounds were closed with silk 4-0 suture and the animal was allowed to recover with appropriate post surgical care. On the following day, the animal was placed in a rat restrainer. The open end of the bladder cannula was connected to a pressure transducer as well as infusion pump through a three-way stopcock. The bladder voiding cycles were initiated by continuous infusion of normal saline at the rate of 100 ul/min. The repetitive voiding contractions were recorded on a Power Lab on-line data acquisition software. After recording the basal voiding pattern for an hour, the test drug or vehicle was administered directly into stomach through the intragastric catheter and the voiding cycles were monitored for 5 hours. Micturition pressure and frequency were calculated before and after the treatment (at every 30 min interval) for each animal. Bladder capacity was calculated from the micturition frequency, based on the constant infusion of 100 ul/min. The effect of the test drug was expressed as a percentage of basal, pre-drug bladder capacity. WAY 100635 was used as positive control for comparison.
# rat MCH1 receptor = target: T6, rat MCH1 receptor (Rattus norvegicus, UniProt P97639); experiment: Binding affinity (Ki) at the rat MCH1 receptor; details: Examples 142-153; read-out: Ki (nM) rMCH1
# T6 construct: expressed in transfected cells
# T6 sequence (P97639 whole entry): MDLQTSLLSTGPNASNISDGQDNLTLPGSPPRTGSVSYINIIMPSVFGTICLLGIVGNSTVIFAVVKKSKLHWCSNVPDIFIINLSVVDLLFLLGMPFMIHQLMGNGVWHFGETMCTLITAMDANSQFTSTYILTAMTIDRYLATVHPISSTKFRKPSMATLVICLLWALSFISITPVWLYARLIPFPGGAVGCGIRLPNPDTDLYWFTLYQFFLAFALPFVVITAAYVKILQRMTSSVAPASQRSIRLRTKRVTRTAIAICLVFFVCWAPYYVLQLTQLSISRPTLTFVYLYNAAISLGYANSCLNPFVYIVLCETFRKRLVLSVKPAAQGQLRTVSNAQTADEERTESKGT
# T1 sequence (Q99705 whole entry): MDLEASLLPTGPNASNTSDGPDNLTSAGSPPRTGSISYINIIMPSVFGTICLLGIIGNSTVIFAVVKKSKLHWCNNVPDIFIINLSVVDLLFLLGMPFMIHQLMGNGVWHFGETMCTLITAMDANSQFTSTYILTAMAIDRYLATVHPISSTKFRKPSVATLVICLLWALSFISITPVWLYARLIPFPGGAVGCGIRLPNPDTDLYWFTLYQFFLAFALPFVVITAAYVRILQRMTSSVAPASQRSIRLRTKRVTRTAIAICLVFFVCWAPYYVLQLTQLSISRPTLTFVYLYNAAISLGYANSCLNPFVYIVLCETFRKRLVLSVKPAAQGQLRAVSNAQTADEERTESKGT
Compound,Effect of MCH1 antagonist in the CSTI model [3],Ki (rat MCH1 receptor) [nM],other results
"COCC1=C(C(=O)OC)C(c2ccc(F)c(F)c2)N(C(=O)NCCCN2CCC(c3cccc4ccccc34)CC2)C(=O)N1 (single isomer, unassigned; (+)) [Example 14, (+)-1,2,3,6-TETRAHYDRO-1-{N-[4-(1-NAPHTHYL)-PIPERIDIN-1-YL]PROP-YL}CARBOXAMIDO-4-METHOXYMETHYL-6-(3,4-DIFLUOROPHENYL)-2-OXO-PYRIMIDINE-5-CARBOXYLIC ACID METHYL ESTER]",,,melting point: 168 to 172 °C; Ki (human MCH1 receptor [1]): 50 nM; Ki (human GALR3 receptor; Table 3a): > 50000 nM; Ki (human GALR3 receptor; Table 3b): > 50000 nM; Kb (human MCH1 receptor [2]): 2 nM; Ki (human GALR2 receptor): 42600 nM; Ki (human GALR1 receptor; Table 3a): > 50000 nM; Ki (human GALR1 receptor; Table 3b): > 50000 nM; Ki (rat 5HT2C receptor): 663 nM
COc1ccc2[nH]c(-c3ccccc3)c(CCCN3CCC(c4cccc(NC(=O)C(C)C)c4)CC3)c2c1 [Example 147],B,2.3,
CCn1c2ccccc2c2cc(CN3CCC(c4cccc(NC(=O)C(C)C)c4)CC3)ccc21 [Example 148],B,1.7,
Cc1ccc(NC(=O)C(C)C)cc1C1CCN(Cc2ccc(Oc3ccc(F)c(F)c3)cc2)CC1 [Example 152],B,2.2,
CC(C)C(=O)Nc1cccc(C2CCN(CCCNC(=O)C(c3ccccc3)c3ccccc3)CC2)c1 [Example 153],B,2.9,
"CC(=O)C1=C(C)NC(=O)N(C(=O)NCCCN2CCC(c3cccc(NC(=O)C(C)C)c3)CC2)[C@H]1c1cc(F)c(F)c(F)c1 [Example 155, (+)-5-ACETYL-N-(3-{4-[3-(ISOBUTYRYLAMINO)PHENYL]-1-PIPERIDINYL}PROPYL)-4-METHYL-2-OXO-6-(3,4,5-TRIFLUOROPHENYL)-3,6-DIHYDRO-1(2H)-PYRIMIDINECARBOXAMIDE. HYDROCHLORIDE SALT]",B,,
